Source: patent US5306496A, “Antibiotics NK374186A, NK374186B, NK374186B3 and NK374186C3, process for producing the same, and use of the same” (Nippon Kayaku Kabushiki Kaisha, priority 1991, dated 1994)
≈ marks a conversion by molar mass, not a printed value.

What was measured:
CDF-1 mice = assay: Toxicity, repeated intraperitoneal administration; type: in vivo; details: 100 mg/kg intraperitoneal once a day for 10 days
Method: 100 mg/kg of NK374186A and NK374186B are intraperitoneally administered to CDF-1 mice (male, aged 8 weeks) repetitively once a day for 10 days. Each test compound is administered in the form of a solution in 3.5% DMSO+6.5% Tween+90% physiological saline.

[1] = tested on: Bacilli, Staphylococcus and Micrococcus; assay: Antibacterial activity, summary in words; type: cell-based; details: on Bacilli, agar dilution method
Method: (§1) The antibacterial and antifungal activities of each antibiotic are expressed in minimum inhibitory concentration (MIC) determined by the agar dilution method. In the antibacterial activity test, each test microorganism is inoculated onto a Muller/Hinton medium and cultured therein at 37° C. overnight to observe the growth of the microorganism. In the antifungal activity test, each test microorganism is inoculated onto a Czapek medium and cultured therein at 27° C. for 2 to 3 days, followed by the observation of the growth of the microorganism.

2780^AD = assay: Cell growth suppressing activity (MTT method), adriamycin-resistant strain; type: cell-based, human; details: adriamycin-resistant strain obtained from A2780, 2 days
Method: (§2) Cells are incubated in an RPMI 1640 medium containing 10% of fetal calf serum at 37° C. under 5% of CO2. Then these cells are sowed in a 96-well plate and pre-incubated for 1 day, followed by the addition of each test compound. The treatment with the test compound was carried out for 2 days and the activity of suppressing the cell growth was evaluated by the MTT method.

Botrytis fabae IFO 6183 = assay: Antifungal activity, MIC by agar dilution method; type: cell-based; details: Czapek medium, 27° C., 2 to 3 days
Method: as §1

Mucor javanicus IFO 4569 = assay: Antifungal activity, MIC by agar dilution method; type: cell-based; details: Czapek medium, 27° C., 2 to 3 days
Method: as §1

[2] = tested on: Penicillium chrysogenum IFO 8645; assay: Antifungal activity, MIC by agar dilution method; type: cell-based; details: Czapek medium, 27° C., 2 to 3 days
Method: as §1

[3] = tested on: Aspergillus niger IFO 4407; assay: Antifungal activity, MIC by agar dilution method; type: cell-based; details: Czapek medium, 27° C., 2 to 3 days
Method: as §1

[4] = tested on: Candida albicans IFO 1385; assay: Antifungal activity, MIC by agar dilution method; type: cell-based; details: Czapek medium, 27° C., 2 to 3 days
Method: as §1

[5] = tested on: Rhizopus hanguchao IFO 4749; assay: Antifungal activity, MIC by agar dilution method; type: cell-based; details: Czapek medium, 27° C., 2 to 3 days
Method: as §1

[6] = tested on: Trycophyton mentagrophytes IFO 5466; assay: Antifungal activity, MIC by agar dilution method; type: cell-based; details: Czapek medium, 27° C., 2 to 3 days
Method: as §1

[7] = tested on: mouse lymphoblast formation with LPS and Con A; assay: Mouse lymphoblast formation with LPS and Con A, summary in words; type: cell-based, BALB/C mouse
Method: (§3) An RPMI 1640 medium containing 20% of fetal calf serum, 25 mM of Hepes buffer, 100 μg/ml of streptomycin and 100 U/ml of penicillin G is used. The incubation is carried out in a 96-well flat-bottomed microplate (COSTAR). As a mitogen, lipopolysaccharide (LPS) and concanavalin A (Con A) are used respectively at final concentrations of 100 μg/ml and 5 μg/ml.
(§4) The spleen of a BALB/C mouse (female,>20 weeks in age) is taken out and a single-cell suspension is prepared. After removing erythrocytes by hyper shock, the suspension is used as such for the treatment with LPS. For the treatment with Con A, on the other hand, the suspension is passed through a Nylon Fiber (a product of Wako Pure Chemicals, Inc.) for separating T cells. 2×10^5 /well of the spleen cells and each test compound of the concentration as specified above are added to thereby give a total volume of 0.2 ml/well, followed by incubation for 72 hours. 8 hours before the completion of the incubation, 37 KBq/well of [^3 H]-thymidine is added and the thymidine uptake in the cells is measured. The effect is evaluated based on the ratio of the [^3 H]-thymidine uptake of a test group to that of a control group ["Meneki Jikken Sosa-ho (Procedures of Immunological Tests)", ed. by Japan Assoc. of Immunol., pages 2267-2276].

Li-7, A2780 and 2780^AD = assay: Cell growth suppressing activity (MTT method), all cell lines, in words; type: cell-based, human; details: each cell line
Method: as §2

mammalian cells = assay: Suppressing the growth of mammalian cells, in words; type: cell-based
[8] = tested on: Micrococcus flavus ATCC 10240; assay: Antibacterial activity, MIC by agar dilution method; type: cell-based; details: Muller/Hinton medium, 37° C., overnight
Method: as §1

[9] = tested on: Staphylococcus aureus FDA 209P; assay: as above; type: cell-based; details: Muller/Hinton medium, 37° C., overnight
Method: as §1

Escherichia coli NIHJ = assay: as above; type: cell-based; details: Muller/Hinton medium, 37° C., overnight
Method: as §1

[10] = as above; type: cell-based; details: Mycobacterium luteus ATCC 9341; Muller/Hinton medium, 37° C., overnight
Method: as §1

[11] = tested on: Bacillus subtilis ATCC 6633; assay: as above; type: cell-based; details: Muller/Hinton medium, 37° C., overnight
Method: as §1

Escherichia coli K-12 = assay: as above; type: cell-based; details: Muller/Hinton medium, 37° C., overnight
Method: as §1

[12] = tested on: Bacillus megaterium ATCC 14945; assay: as above; type: cell-based; details: Muller/Hinton medium, 37° C., overnight
Method: as §1

[13] = tested on: Bacillus subtilis IAM 1072; assay: as above; type: cell-based; details: Muller/Hinton medium, 37° C., overnight
Method: as §1

[14] = tested on: transplanted section/host reaction (GVH); assay: Transplanted section/host reaction (GVH), spleen weighing method; type: in vivo, BDF mouse; details: for Spleen/total body weight ± S.D. / Index (spleen/total body weight): subcutaneous, 3 days; for Spleen/total body weight ± S.D.: seventh day after transplantation; for Index (spleen/total body weight): untreated = 1.00
Method: This test is carried out in accordance with the spleen weighing method of Ford et al. [Ford, W. L., et al., Handbook of Experimental Immunology 30 (ed. by Weir, D. M.), Blackwell Scientific Publications, (1978), page 1]. 5×10^6 spleen cells obtained from a donor C57BL/6 mouse (male, aged 8 weeks) are transplanted into the peritoneal cavity of a BDF mouse (male, aged 7 weeks) which is the Fl hybrid receptor. At the same time, NK374186 and a control drug are dissolved in a solvent (0.25 % gum arabic) and subcutaneously injected into the dorsum of the receptor mouse. As a control, the solvent alone is also subcutaneously injected into the dorsum of the mouse. The same administration is effected on the next day and on the following day. On the seventh day after the transplantation, the spleen of the animal is weighed.

[15] = tested on: mouse lymphoblast formation with Con A (T cells); assay: Mouse lymphoblast formation with Con A ([^3 H]-thymidine uptake); type: cell-based, BALB/C mouse; details: Con A 5 μg/ml, 72 hours, control = 100
Method: as §3, §4

[16] = tested on: mouse lymphoblast formation with LPS (spleen cells); assay: Mouse lymphoblast formation with LPS ([^3 H]-thymidine uptake); type: cell-based, BALB/C mouse; details: 72 hours, control = 100
Method: as §3, §4

Li-7 = assay: Cell growth suppressing activity (MTT method); type: cell-based; details: Li-7, human hepatic cancer, 2 days
Method: as §2

A2780 = assay: Cell growth suppressing activity (MTT method); type: cell-based; details: A2780, human ovarian cancer, 2 days
Method: as §2

Solubility = type: physicochemical

## C=CC(C)(C)[C@H](NC(=O)[C@H](C)[C@H](O)[C@H](C)[C@H](O)CCCCCCCCCCCCC)C(=O)N[C@H](C(=O)N[C@@H](C=O)C(=O)O)[C@@H](C)O [NK374186B]
CDF-1 mice
  death of mice: none of these compounds causes the death of mice
  toxicity: low toxicity
CDF-1 mice; versus solvent control group
  clinical conditions: no difference from those of the solvent control group
[1]
  antibacterial activity: potent antibacterial activity on Bacilli, Staphylococcus and Micrococcus
2780^AD
  IC50: 33 µg/mL (≈ 50.3 µM)
Botrytis fabae IFO 6183
  MIC: > 100 µg/mL
Mucor javanicus IFO 4569
  MIC: > 100 µg/mL
[2]
  MIC: > 100 µg/mL
[3]
  MIC: > 100 µg/mL
[4]
  MIC: > 100 µg/mL
[5]
  MIC: > 100 µg/mL
[6]
  MIC: > 100 µg/mL
[7]; at a concentration of 10 μg/ml or above
  lymphoblast formation: potently suppress the same at a concentration of 10 μg/ml or above
[7]; at a lower concentration
  lymphoblast formation: promote the lymphoblast formation with LPS and Con A at a lower concentration
Li-7, A2780 and 2780^AD
  cell growth suppression: suppress the growth of each cell line
Mammalian cells
  activity of suppressing the growth of mammalian cells: weak activity of suppressing the growth of mammalian cells
[8]
  MIC: 3.13 µg/mL (≈ 4.77 µM)
[9]
  MIC: 3.13 µg/mL (≈ 4.77 µM)
Escherichia coli NIHJ
  MIC: > 100 µg/mL
[10]
  MIC: > 100 µg/mL
[11]
  MIC: > 100 µg/mL
Escherichia coli K-12
  MIC: > 100 µg/mL
[12]
  MIC: 6.25 µg/mL (≈ 9.53 µM)
[13]
  MIC: 6.25 µg/mL (≈ 9.53 µM)
[14]; 0.5 mg/kg
  Spleen/total body weight ± S.D.: 8.24 ± 1.54 ×10^-3
  Index (spleen/total body weight): 1.74
[14]; 5 mg/kg
  Spleen/total body weight ± S.D.: 11.32 ± 3.61 ×10^-3
[14]; 5 mg/kg, * printed
  Index (spleen/total body weight): 2.40
[14]; 50 mg/kg
  Spleen/total body weight ± S.D.: 12.63 ± 3.37 ×10^-3
[14]; 50 mg/kg, * (A), ** (B) printed
  Index (spleen/total body weight): 2.67
[14]; in words
  GVH reaction: significantly enhanced
  spleen/total body weight ratio: increased depending on the dose
[15]; 0.1 μg/ml
  Function index, Con A: 133.7%
[15]; 1 μg/ml
  Function index, Con A: 168.8%
[15]; 10 μg/ml
  Function index, Con A: 111.6%
[15]; 100 μg/ml
  Function index, Con A: 31.5%
[16]; 0.1 μg/ml, LPS 100 μg/ml
  Function index, LPS: 156.3%
[16]; 1 μg/ml, LPS 100 μg/ml
  Function index, LPS: 156.3%
[16]; 10 μg/ml, LPS 100 μg/ml
  Function index, LPS: 94.7%
[16]; 100 μg/ml
  Function index, LPS: 0.8%
Li-7
  IC50: 7.0 µg/mL (≈ 10.7 µM)
A2780
  IC50: 6.6 µg/mL (≈ 10.1 µM)
Solubility
  solubility: soluble in lower alcohols, chloroform and ethyl acetate
